Measurements: publication PMC9122897, “SHR1032, a novel STING agonist, stimulates anti-tumor immunity and directly induces AML apoptosis” (Scientific Reports, 2022)
Like-named read-outs stand apart in the source and are kept apart here. One block for each molecule: values may come before it.

What was measured:
human STING = target: T1, human STING (Homo sapiens, UniProt Q86WV6); test: Thermal shift assay; assay type: binding; conditions: human STING protein 5 uM; ligand bound vs apo
T1 construct: made in house; host or cells: E. coli
T1 sequence (Q86WV6 155-341 limits assumed): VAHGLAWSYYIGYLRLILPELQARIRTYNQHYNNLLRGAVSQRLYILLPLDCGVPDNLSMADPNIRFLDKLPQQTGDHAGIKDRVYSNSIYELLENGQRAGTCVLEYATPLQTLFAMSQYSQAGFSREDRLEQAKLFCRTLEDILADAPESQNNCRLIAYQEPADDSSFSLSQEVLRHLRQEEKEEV
Excerpt: (§1) We sought to develop small molecule compounds with increased STING agonist activity against human STING. GSK reported a series of non-CDN small molecules, represented by compound 1[13], with good human STING agonistic activity. Based on our molecular modeling analysis, along with the reported CDN-STING crystal structures, we designed a novel series of fused tricyclic heterocycle compounds and analyzed their binding to human STING with thermal shift assays and the potency in activation of STING signaling with a reporter cellular assay (Supplementary Table S1). Thermal shift assays measure the difference between apo STING and ligand bound STING in the inflection point at which 50% of protein is thermally unfolded (ΔTm). […] The ability of compounds to activate the IRF reporter gene in the THP1 cells was also evaluated.
The melting temperature (Tm) of human STING was determined by calculating the temperature at the inflection point of the thermal melt curve generated on a Roche LightCycler 480 using 384 plate format and 465–590 nm filter set. […] Florescence was measured while ramping the plate temperature from 20 to 95 °C and the resulting data was processed using ROCHE data analysis software. Delta Tms were calculated by subtracting the Tm of untreated protein from ligand treated samples. […]

THP1 reporter cells = test: THP1 IRF luciferase reporter assay; assay type: cell-based; conditions: Homo sapiens, THP-1; IRF Lucia luciferase reporter, 24 h; read-out: THP1 reporter cell EC50
Excerpt: as §1
THP1 reporter cells were treated for 24 h with a total of 100 k cells and 150 ul media in each well a 96-well plate. […] Luminescence signal was measured using Tecan infinite M1000. EC50 values were calculated using non-linear regression analysis of GraphPad Prism. Cell growth was monitored by CellTiter-Glo Luminescent Cell Viability Assay (Promega) per manufacture’s protocol. GI50 values were calculated using non-linear regression analysis of GraphPad Prism. […]

[1] = tested on: MC38 mouse syngeneic colorectal adenocarcinoma; test: MC38 syngeneic tumor model; assay type: in vivo, C57BL/6 mouse; conditions: 50 µg intratumorally on day 1, 5, 8; after 21 days since the first dosing
Experimental: Figure 3 Robust cytokine induction and antitumor effects in vivo. (a,b) C57BL/6 mice were inoculated with mouse MC38 colon cancer cells in the left flank. When tumor volumes were 100 mm^3, they received intratumoral (IT) dose of 100 µg of SHR1032 on day 1, 5, 8 and 12 or IT dose of 50 µg ADU-S100 on day 1, 5, and 8, or vehicle, respectively. (a) Tumor volume was measured at different time points. Results are shown as mean tumor volume ± sem. (n = 8 animals per group). (b) Mouse bodyweight was measured at different time points. (c–f) C57BL/6 mice were inoculated with mouse MC38 colon cancer cells in the left flank. When tumor volumes were 100 mm^3, they received one IT dose of 100 µg of SHR1032 or 50 µg ADU-S100, or vehicle. (c) IFNβ, (d) IL-6 and (e) TNFα from both tumor and plasma was measured by ELISA 4 h after. (f) SHR1032 compound concentration in tumors were measured.
Human and Cynomolgous PBMC’s were thawed and spun down in Lymphocyte media (ZENBIO) and resuspended in media to 1.5 x 10^6 cells/ml density. Mouse RAW 264.7 cells were detached from the flask and resuspended in media to 1.5 x 10^6 cells/ml density. Then, 100 µl of media containing the cells was added to each well of a 96-well plate containing compound in 50 µl of media. Plates were incubated for 5 h at 37 °C and supernatant was collected for ELISA analysis. Human and monkey IFN-β protein concentration was measured using human IFN-β Quantikine ELISA Kits (R&D Systems) per manufacture’s protocol. Mouse IFN-β was measured using mouse IFN-β Quantikine ELISA Kits (R&D Systems) per manufacture’s protocol. Mouse TNFα, IFN-β and IL-6 in the tumor lysates and plasma was measured by Quantikine ELISA Kits (R&D Systems) per manufacture’s protocol.
Female C57BL/6 mice, aged between 8 and 10 weeks old, were purchased from Charles River Lab. MC38 mouse colorectal cancer cells were resuspended as single cell solution in PBS at a concentration of 5 × 10^6 cells/ml. One hundred µl of cell suspension were implanted in the right flank of mice subcutaneously. Tumor size was measured by a caliper in three dimensions and its volume was then calculated according to the following formula: Tumor Volume (mm^3) = l * w * h * 0.5236, where l = length, w = width and h = height in mm for a tumor. When the average tumor volume reached around 100 mm^3, the mice were randomly assigned into three groups (n = 8) and each group of mice received one regimen. This day was assigned as day 0 for the study. […] Tumor volume and body weight were measured 3 times per week throughout the study. […] Cytokines and SHR1032 concentration in the plasma and tumor tissues were analyzed. […]

THP1-STING-KO cells = test: CellTiter-Glo cell growth; assay type: cell-based, human
Experimental: (§2) (a–d) AML cells were treated with STING agonists and standard of care cytarabine, and cell viability was measured by CellTiter Glo in (a) THP1-STING-R232, (b) THP1-STING-KO, (c) MV-4-11 and (d) MOLM-16. (e) MV-4-11, MOLM-16 and THP1-STING-KO cells were stimulated with 1 µM of SHR1032 for the indicated time points. The amount of pTBK1, total TBK1, pSTING, total STING and α-tubulin was measured by Western blot. pSTING phosphorylated STING. THP1 reporter cells were treated for 24 h with a total of 100 k cells and 150 ul media in each well a 96-well plate. Following the incubation, 20 µl of supernatant was transferred to an opaque 96 well ½ area plate and incubated for 30 s with 50 µl of QUANTI-Luc substrate (InvivoGen) per manufacturer’s instructions. Luminescence signal was measured using Tecan infinite M1000. EC50 values were calculated using non-linear regression analysis of GraphPad Prism. Cell growth was monitored by CellTiter-Glo Luminescent Cell Viability Assay (Promega) per manufacture’s protocol. GI50 values were calculated using non-linear regression analysis of GraphPad Prism. Cell lysates for western blotting were made in RIPA buffer (Sigma) with Halt Protease and Phosphatase Inhibitors (Thermo Scientific). Antibodies against pSTING, TBK1, pTBK1 and tubulin were purchased from Cell Signaling Technologies, and anti-STING was purchased from Protein Tech.

THP1-STING-R232 cells = test: CellTiter-Glo cell growth; assay type: cell-based, human
Experimental: as §2

MOLM-16 cells = test: CellTiter-Glo cell growth; assay type: cell-based; conditions: Homo sapiens, MOLM16; MOLM-16, CellTiter Glo
Experimental: as §2

MV4-11 cells = test: CellTiter-Glo cell growth; assay type: cell-based; conditions: Homo sapiens; MV4-11, CellTiter Glo
Experimental: as §2

- Thermal shift ∆Tm (human STING): 5.7 °C
- EC50 (THP1 reporter cells): 1600 nM
SMILES: C=CC[C@H]1COc2cc(C(N)=O)cc3nc(NC(=O)c4cc(C)nn4CC)n1c23 [Compound 2]

SMILES: Nc1ncnc2c1ncn2[C@@H]1O[C@@H]2COP(=O)([S-])O[C@@H]3[C@H](O)[C@@H](COP([O-])(=S)O[C@H]2[C@H]1O)O[C@H]3n1cnc2c(N)ncnc21.[Na+].[Na+] (some centres unmarked) [ADU-S100, reference compound]
- tumor response [1]: complete tumor regression
- cell growth inhibition (THP1-STING-KO cells): not detectable
- GI50 (THP1-STING-R232 cells): 9440 nM

- GI50 (MOLM-16 cells): 450 nM
- GI50 (MV4-11 cells): 340 nM
- GI50 (THP1-STING-R232 cells; Homo sapiens): 100 nM
SMILES: Nc1ccn([C@@H]2O[C@H](CO)[C@@H](O)[C@@H]2O)c(=O)n1 [cytarabine, reference compound]
